Activity calls are given as the source filed them.
Legend:
[1] = target: Angiopoietin-1 receptor (Homo sapiens, UniProt Q02763); assay: NanoBRET assay (SGC Frankfurt) with TEK
[2] = test system: Phosphatidylinositol 4,5-bisphosphate 3-kinase catalytic subunit alpha isoform (Homo sapiens), P42336 [Q546K]
[3] = target: Phosphatidylinositol 4,5-bisphosphate 3-kinase catalytic subunit alpha isoform (Homo sapiens) (UniProt P42336)
[4] = test system: Receptor-type tyrosine-protein kinase FLT3 (Homo sapiens), P36888 [UNDEFINED MUTATION]
[5] = target: Tyrosine-protein kinase HCK (Homo sapiens) (UniProt P08631)
[6] = target: Proto-oncogene tyrosine-protein kinase ROS (Homo sapiens) (UniProt P08922)
[7] = target: Non-receptor tyrosine-protein kinase TYK2 (Homo sapiens) (UniProt P29597)
Sequence of Non-receptor tyrosine-protein kinase TYK2 (Homo sapiens) (P29597 whole entry): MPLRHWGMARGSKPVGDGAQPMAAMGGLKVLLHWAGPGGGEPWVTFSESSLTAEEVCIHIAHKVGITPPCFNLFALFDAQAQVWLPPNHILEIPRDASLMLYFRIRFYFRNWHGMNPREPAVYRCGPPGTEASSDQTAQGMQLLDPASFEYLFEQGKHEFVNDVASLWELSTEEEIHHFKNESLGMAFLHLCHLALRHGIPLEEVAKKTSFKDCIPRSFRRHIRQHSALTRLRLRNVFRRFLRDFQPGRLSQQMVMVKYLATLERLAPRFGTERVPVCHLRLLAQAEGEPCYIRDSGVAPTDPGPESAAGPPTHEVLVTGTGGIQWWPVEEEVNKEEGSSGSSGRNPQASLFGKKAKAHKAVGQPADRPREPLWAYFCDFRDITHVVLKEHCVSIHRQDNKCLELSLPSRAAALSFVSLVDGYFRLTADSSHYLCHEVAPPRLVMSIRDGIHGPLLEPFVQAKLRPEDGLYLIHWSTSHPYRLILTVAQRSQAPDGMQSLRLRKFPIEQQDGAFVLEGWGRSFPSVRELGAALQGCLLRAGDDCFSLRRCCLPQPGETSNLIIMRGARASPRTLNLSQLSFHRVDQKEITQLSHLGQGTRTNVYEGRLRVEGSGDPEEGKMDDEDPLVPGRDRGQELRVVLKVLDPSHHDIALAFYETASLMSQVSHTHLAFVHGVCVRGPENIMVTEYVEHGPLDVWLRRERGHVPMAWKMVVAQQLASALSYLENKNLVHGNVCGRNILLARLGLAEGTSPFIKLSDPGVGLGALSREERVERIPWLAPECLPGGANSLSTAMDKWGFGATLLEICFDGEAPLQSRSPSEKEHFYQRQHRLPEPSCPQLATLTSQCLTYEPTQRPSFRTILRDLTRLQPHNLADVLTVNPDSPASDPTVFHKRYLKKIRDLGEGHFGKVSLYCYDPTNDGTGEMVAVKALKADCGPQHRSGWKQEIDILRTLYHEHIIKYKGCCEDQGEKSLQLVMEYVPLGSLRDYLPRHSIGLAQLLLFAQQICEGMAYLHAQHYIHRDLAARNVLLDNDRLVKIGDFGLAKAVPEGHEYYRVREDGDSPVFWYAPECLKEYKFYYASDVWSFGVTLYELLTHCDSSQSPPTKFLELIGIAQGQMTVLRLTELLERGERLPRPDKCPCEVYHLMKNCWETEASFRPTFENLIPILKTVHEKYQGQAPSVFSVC

[8] = target: Myosin light chain kinase (Homo sapiens) (UniProt Q32MK0)
[9] = target: Ephrin type-B receptor 1 (Homo sapiens) (UniProt P54762)
[10] = target: Receptor-type tyrosine-protein kinase FLT3 (Homo sapiens) (UniProt P36888)
[11] = target: Serine/threonine-protein kinase DCLK1 (Homo sapiens) (UniProt O15075)
[12] = target: Serine/threonine-protein kinase 32A (Homo sapiens) (UniProt Q8WU08)
[13] = target: Maternal embryonic leucine zipper kinase (Homo sapiens) (UniProt Q14680)
Sequence of Maternal embryonic leucine zipper kinase (Homo sapiens) (Q14680 whole entry, looked up): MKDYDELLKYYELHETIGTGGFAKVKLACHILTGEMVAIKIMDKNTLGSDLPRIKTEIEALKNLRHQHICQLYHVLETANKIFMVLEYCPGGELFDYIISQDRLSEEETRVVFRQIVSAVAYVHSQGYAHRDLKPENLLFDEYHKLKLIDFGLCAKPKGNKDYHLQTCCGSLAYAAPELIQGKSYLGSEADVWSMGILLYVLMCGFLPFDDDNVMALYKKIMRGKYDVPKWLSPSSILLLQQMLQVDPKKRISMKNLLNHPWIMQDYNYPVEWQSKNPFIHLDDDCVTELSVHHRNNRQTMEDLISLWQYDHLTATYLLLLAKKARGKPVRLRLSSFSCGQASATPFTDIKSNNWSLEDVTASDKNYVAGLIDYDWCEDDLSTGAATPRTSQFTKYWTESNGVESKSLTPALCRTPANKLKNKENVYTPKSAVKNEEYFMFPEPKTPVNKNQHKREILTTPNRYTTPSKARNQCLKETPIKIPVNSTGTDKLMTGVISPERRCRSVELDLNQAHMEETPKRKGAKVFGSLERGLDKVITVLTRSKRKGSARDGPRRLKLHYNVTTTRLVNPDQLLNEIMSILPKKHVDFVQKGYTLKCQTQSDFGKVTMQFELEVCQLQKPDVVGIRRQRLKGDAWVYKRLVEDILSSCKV

[14] = target: Interferon-induced, double-stranded RNA-activated protein kinase (Homo sapiens) (UniProt P19525)
[15] = target: Activin receptor type-2B (Homo sapiens) (UniProt Q13705)
[16] = target: Tyrosine-protein kinase Fgr (Homo sapiens) (UniProt P09769)
[17] = target: Hormonally up-regulated neu tumor-associated kinase (Homo sapiens) (UniProt P57058)
[18] = target: Protein kinase C iota type (Homo sapiens) (UniProt P41743)
[19] = target: BDNF/NT-3 growth factors receptor (Homo sapiens) (UniProt Q16620)
[20] = target: Activin receptor type-2A (Homo sapiens) (UniProt P27037)
[21] = target: Mitogen-activated protein kinase kinase kinase 14 (Homo sapiens) (UniProt Q99558)
[22] = target: Mitogen-activated protein kinase kinase kinase 4 (Homo sapiens) (UniProt Q9Y6R4)
[23] = target: Inhibitor of nuclear factor kappa-B kinase subunit beta (Homo sapiens) (UniProt O14920)
Sequence of Inhibitor of nuclear factor kappa-B kinase subunit beta (Homo sapiens) (O14920 whole entry): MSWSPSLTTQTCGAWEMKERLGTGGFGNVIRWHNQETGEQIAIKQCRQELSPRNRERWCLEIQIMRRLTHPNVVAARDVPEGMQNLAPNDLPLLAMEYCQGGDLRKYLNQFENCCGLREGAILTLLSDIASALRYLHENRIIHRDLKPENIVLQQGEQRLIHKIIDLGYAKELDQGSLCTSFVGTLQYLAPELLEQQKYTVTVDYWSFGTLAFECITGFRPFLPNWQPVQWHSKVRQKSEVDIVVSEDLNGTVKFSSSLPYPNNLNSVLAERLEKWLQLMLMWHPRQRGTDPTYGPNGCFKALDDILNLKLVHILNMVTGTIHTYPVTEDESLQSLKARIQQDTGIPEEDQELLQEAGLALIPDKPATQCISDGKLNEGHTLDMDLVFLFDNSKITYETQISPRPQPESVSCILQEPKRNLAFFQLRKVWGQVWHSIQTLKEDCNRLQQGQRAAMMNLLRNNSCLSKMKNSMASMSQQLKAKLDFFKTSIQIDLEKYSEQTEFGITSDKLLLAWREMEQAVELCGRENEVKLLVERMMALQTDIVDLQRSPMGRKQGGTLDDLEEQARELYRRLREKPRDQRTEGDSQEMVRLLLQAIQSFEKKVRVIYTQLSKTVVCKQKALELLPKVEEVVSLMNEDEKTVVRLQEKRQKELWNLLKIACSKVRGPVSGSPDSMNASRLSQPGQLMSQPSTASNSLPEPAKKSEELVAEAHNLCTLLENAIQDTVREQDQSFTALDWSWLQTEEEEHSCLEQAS

[24] = target: Cyclin-dependent kinase 7 (Homo sapiens) (UniProt P50613)
[25] = target: Serine/threonine-protein kinase TBK1 (Homo sapiens) (UniProt Q9UHD2)
[26] = target: Mitogen-activated protein kinase kinase kinase 7 (Homo sapiens) (UniProt O43318)
[27] = target: RAC-beta serine/threonine-protein kinase (Homo sapiens) (UniProt P31751)
[28] = target: Ephrin type-B receptor 6 (Homo sapiens) (UniProt O15197)
[29] = target: Alpha-2A adrenergic receptor (Homo sapiens) (UniProt P08913); settings: Compound concentration 10.0 uM
[30] = target: Alpha-1B adrenergic receptor (Homo sapiens) (UniProt P35368); settings: Compound concentration 10.0 uM
Sequence of Alpha-1B adrenergic receptor (Homo sapiens) (P35368 whole entry): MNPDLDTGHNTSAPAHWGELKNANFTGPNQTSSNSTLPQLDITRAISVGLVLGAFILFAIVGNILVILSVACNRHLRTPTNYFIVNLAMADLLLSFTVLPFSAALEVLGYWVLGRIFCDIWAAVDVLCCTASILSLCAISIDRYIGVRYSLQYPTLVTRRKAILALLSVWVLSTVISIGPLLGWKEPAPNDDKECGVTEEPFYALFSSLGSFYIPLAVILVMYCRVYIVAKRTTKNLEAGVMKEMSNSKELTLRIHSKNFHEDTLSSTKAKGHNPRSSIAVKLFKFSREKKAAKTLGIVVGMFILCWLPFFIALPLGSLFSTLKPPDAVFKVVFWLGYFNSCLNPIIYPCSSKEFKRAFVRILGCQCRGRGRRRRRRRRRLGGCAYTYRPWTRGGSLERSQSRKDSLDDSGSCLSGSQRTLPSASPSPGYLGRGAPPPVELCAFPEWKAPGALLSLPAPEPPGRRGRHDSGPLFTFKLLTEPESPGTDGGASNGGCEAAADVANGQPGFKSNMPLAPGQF

[31] = target: Protein kinase C eta type (Homo sapiens) (UniProt P24723)
[32] = target: STE20-like serine/threonine-protein kinase (Homo sapiens) (UniProt Q9H2G2)
[33] = target: Fibroblast growth factor receptor 4 (Homo sapiens) (UniProt P22455)
[34] = test system: Tyrosine-protein kinase ABL1 (Homo sapiens), P00519 [T315I]
[35] = target: Casein kinase II subunit alpha (Homo sapiens) (UniProt P68400)
[36] = target: Serine/threonine-protein kinase BRSK1 (Homo sapiens) (UniProt Q8TDC3)
[37] = target: Dual specificity mitogen-activated protein kinase kinase 1 (Homo sapiens) (UniProt Q02750)
[38] = GPCRScan assay: inhibition of GABA/PBR; set-up: species or system Rattus norvegicus; radioligand conc. used [nm] 0.3 – 2.0, parental cells brain tissue
[39] = target: Tyrosine-protein kinase TXK (Homo sapiens) (UniProt P42681)
[40] = test system: Tyrosine-protein kinase ABL1 (Homo sapiens), P00519 [H396P]
[41] = test system: Tyrosine-protein kinase ABL1 (Homo sapiens), P00519 [F317L]
[42] = target: Serine/threonine-protein kinase D3 (Homo sapiens) (UniProt O94806)
[43] = target: Mitogen-activated protein kinase kinase kinase 3 (Homo sapiens) (UniProt Q99759)
Sequence of Mitogen-activated protein kinase kinase kinase 3 (Homo sapiens) (Q99759 whole entry): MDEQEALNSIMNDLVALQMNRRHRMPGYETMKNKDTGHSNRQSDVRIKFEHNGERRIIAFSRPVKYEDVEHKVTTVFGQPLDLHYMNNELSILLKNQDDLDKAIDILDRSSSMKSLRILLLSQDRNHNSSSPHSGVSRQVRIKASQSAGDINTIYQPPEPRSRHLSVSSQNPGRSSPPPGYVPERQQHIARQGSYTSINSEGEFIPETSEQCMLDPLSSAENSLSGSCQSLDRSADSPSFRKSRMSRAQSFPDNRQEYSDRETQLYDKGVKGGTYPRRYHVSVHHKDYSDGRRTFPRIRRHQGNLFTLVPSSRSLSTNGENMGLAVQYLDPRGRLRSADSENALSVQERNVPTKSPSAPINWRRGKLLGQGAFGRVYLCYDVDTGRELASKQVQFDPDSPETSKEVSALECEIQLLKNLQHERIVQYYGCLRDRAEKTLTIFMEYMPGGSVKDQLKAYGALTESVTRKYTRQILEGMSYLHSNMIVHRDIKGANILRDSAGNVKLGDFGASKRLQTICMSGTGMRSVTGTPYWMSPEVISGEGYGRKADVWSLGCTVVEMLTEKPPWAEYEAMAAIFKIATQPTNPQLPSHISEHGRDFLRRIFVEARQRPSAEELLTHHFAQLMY

[44] = test system: Epidermal growth factor receptor (Homo sapiens), P00533 [UNDEFINED MUTATION]
[45] = target: Serine/threonine-protein kinase ICK (Homo sapiens) (UniProt Q9UPZ9)
[46] = Compound concentration 1000.0 nM
[47] = Compound concentration 100.0 nM

Sequence of Angiopoietin-1 receptor (Q02763 whole entry, canonical isoform): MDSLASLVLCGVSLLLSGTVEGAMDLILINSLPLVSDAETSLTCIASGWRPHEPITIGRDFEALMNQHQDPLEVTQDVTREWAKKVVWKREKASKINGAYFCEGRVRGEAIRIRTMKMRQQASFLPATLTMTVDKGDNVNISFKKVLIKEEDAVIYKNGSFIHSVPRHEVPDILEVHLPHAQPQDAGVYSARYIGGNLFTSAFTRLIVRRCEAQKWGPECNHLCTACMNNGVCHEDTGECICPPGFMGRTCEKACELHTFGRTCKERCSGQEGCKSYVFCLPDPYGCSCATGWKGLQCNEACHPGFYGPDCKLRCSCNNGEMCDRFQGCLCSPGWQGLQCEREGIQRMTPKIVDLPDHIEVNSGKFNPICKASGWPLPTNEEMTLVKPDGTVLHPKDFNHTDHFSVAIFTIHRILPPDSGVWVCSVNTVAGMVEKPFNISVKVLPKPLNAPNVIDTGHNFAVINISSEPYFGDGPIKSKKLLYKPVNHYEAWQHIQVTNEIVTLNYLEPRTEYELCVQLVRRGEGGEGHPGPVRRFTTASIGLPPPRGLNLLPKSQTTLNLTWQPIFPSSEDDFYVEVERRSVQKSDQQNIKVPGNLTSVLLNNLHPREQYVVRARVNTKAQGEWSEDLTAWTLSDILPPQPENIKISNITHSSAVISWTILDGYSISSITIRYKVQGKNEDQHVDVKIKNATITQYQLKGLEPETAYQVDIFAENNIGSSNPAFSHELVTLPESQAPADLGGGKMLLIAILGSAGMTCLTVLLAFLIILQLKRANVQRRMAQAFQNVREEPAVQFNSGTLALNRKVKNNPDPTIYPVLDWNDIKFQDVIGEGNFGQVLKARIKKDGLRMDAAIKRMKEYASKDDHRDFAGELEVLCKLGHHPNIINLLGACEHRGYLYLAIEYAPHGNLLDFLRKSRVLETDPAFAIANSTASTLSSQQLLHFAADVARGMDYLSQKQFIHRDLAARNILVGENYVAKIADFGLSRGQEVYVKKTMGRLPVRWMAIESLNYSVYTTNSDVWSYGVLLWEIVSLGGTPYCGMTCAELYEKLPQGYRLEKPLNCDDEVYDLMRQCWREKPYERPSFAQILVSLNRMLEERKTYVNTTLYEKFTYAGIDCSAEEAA

Cc1cc(NC(=O)c2cccc(S(F)(F)(F)(F)F)c2)cc(-n2ccn3nc(-c4cccnc4)cc23)c1 [BAY-309]
1100 nM (not active): IC50 [1]
8.03: pKi [38]
3300 nM (not active): EC50 [1]
active: residual activity [19, 46] 40% | residual activity [25, 46] 49.7%
inactive: residual activity [2, 46] 100% | residual activity [3, 46] 100% | residual activity [4, 46] 66.1% | residual activity [5, 46] 98.7% | residual activity [6, 46] 92.8% | residual activity [7, 46] 51% | residual activity [8, 46] 100% | residual activity [9, 46] 100% | residual activity [10, 46] 100% | residual activity [11, 46] 66.2% | residual activity [12, 46] 100% | residual activity [13, 46] 100% | residual activity [14, 46] 72.7% | residual activity [15, 46] 100% | residual activity [16, 46] 100% | residual activity [17, 46] 77.6% | residual activity [18, 46] 80.4% | residual activity [20, 46] 100% | residual activity [21, 46] 73.8% | residual activity [22, 46] 53.6% | residual activity [23, 46] 65.5% | residual activity [24, 46] 100% | residual activity [26, 46] 100% | residual activity [27, 46] 82.5% | residual activity [28, 46] 100% | inhibition [29] 15.8% | inhibition [30] -8.99% | residual activity [31, 46] 100% | residual activity [32, 46] 95.2% | residual activity [33, 46] 100% | residual activity [34, 46] 88.9% | residual activity [35, 46] 66.7% | residual activity [36, 46] 100% | residual activity [37, 46] 100% | residual activity [39, 46] 56.2% | residual activity [40, 46] 100% | residual activity [41, 46] 100% | residual activity [42, 46] 100% | residual activity [43, 46] 87.9% | residual activity [44, 46] 100% | residual activity [45, 46] 64.2%
10.9 nM: Ki [38]

Cc1cc(C)c(-n2ccn3nc(-c4cccnc4)cc23)cc1NC(=O)c1cc(C#N)cc(S(F)(F)(F)(F)F)c1 [BAY-826]
active: EC50 [1] 1.7 nM | IC50 [1] 0.7 nM | residual activity [28, 47] 3% | residual activity [32, 47] 48.5% | residual activity [34, 47] 33.4% | residual activity [41, 47] 26.6%
217 nM: Ki [38]
inactive: residual activity [2, 47] 100% | residual activity [3, 47] 87.9% | residual activity [4, 47] 87.7% | residual activity [5, 47] 72.1% | residual activity [6, 47] 100% | residual activity [7, 47] 76.9% | residual activity [8, 47] 100% | residual activity [9, 47] 100% | residual activity [10, 47] 100% | residual activity [11, 47] 73.6% | residual activity [12, 47] 100% | residual activity [13, 47] 100% | residual activity [14, 47] 96.4% | residual activity [15, 47] 88.7% | residual activity [16, 47] 84.9% | residual activity [17, 47] 83% | residual activity [18, 47] 100% | residual activity [19, 47] 54.8% | residual activity [20, 47] 100% | residual activity [21, 47] 100% | residual activity [22, 47] 98.1% | residual activity [23, 47] 100% | residual activity [24, 47] 70.1% | residual activity [25, 47] 62.8% | residual activity [26, 47] 66.2% | residual activity [27, 47] 88.4% | inhibition [29] 11.1% | inhibition [30] -0.87% | residual activity [31, 47] 99.5% | residual activity [33, 47] 99.4% | residual activity [35, 47] 74.2% | residual activity [36, 47] 84% | residual activity [37, 47] 76.2% | residual activity [39, 47] 98.3% | residual activity [40, 47] 87.5% | residual activity [42, 47] 97% | residual activity [43, 47] 67.3% | residual activity [44, 47] 91.6% | residual activity [45, 47] 74.1%

Reference: ChEMBL document CHEMBL4507270 (2021)
